Data published in ChEMBL document CHEMBL6087391, “Novel bibenzyl compound 8Ae induces apoptosis and inhibits glycolysis by detaching hexokinase 2 from mitochondria in A549 cells” (Bioorg Med Chem, 2024).
pIC50: −log10 of the molar value. The source made the active and inactive calls. No cut-off for these calls is given here.

Tests used:
A549 [1] = assay: Induction of mitochondria mediated apoptosis in human A549 cells assessed as reduction in HK2 level at 1 to 10 uM incubated for 48 hrs by immunofluorescence confocal microscopic analysis; assay type: functional, cell-based; conditions: dose 1-10 µM
A549 [2] = assay: Inhibition of glycolysis in human A549 cells assessed as downregulation of GLUT1 expression in cytosol fraction at 1 to 10 uM incubated for 48 hrs by Western blotting analysis; assay type: functional, cell-based; conditions: dose 1-10 µM
A549 [3] = assay: Antiproliferative activity against human A549 cells assessed as reduction in cell viability incubated for 48 hrs by MTT assay; assay type: functional, cell-based
A549 [4] = assay: Antiproliferative activity against human A549 cells assessed as inhibition of cell growth incubated for 48 hrs by MTT assay; assay type: functional, cell-based; conditions: A549, 48 h
MDA-MB-231 = assay: Antiproliferative activity against human MDA-MB-231 cells assessed as inhibition of cell growth incubated for 48 hrs by MTT assay; assay type: functional, cell-based; conditions: MDA-MB-231, 48 h
BEAS-2B = assay: Antiproliferative activity against human BEAS-2B cells assessed as inhibition of cell growth incubated for 48 hrs by MTT assay; assay type: toxicity, cell-based
A549 [5] = assay: Induction of apoptosis in human A549 cells assessed as early apoptotic cells at 1 uM incubated for 48 hrs by Annexin V-FITC/PI staining based flow cytometry; assay type: functional
A549 [6] = assay: Induction of apoptosis in human A549 cells assessed as early apoptotic cells at 5 uM incubated for 48 hrs by Annexin V-FITC/PI staining based flow cytometry; assay type: functional
A549 [7] = assay: Induction of apoptosis in human A549 cells assessed as early apoptotic cells at 10 uM incubated for 48 hrs by Annexin V-FITC/PI staining based flow cytometry; assay type: functional
A549 [8] = assay: Induction of apoptosis in human A549 cells assessed as late apoptotic cells at 1 uM incubated for 48 hrs by Annexin V-FITC/PI staining based flow cytometry; assay type: functional
A549 [9] = assay: Induction of apoptosis in human A549 cells assessed as late apoptotic cells at 5 uM incubated for 48 hrs by Annexin V-FITC/PI staining based flow cytometry; assay type: functional
A549 [10] = assay: Induction of apoptosis in human A549 cells assessed as late apoptotic cells at 10 uM incubated for 48 hrs by Annexin V-FITC/PI staining based flow cytometry; assay type: functional
A549 [11] = assay: Inhibition of glycolysis in human A549 cells assessed as reduction in glucose uptake incubated for 48 hrs by Amplex red dye based spectrophotometry; assay type: functional, cell-based
A549 [12] = assay: Inhibition of glycolysis in human A549 cells assessed as reduction in lactate production at 1 uM incubated for 48 hrs by trypan blue staining based spectrophotometry; assay type: functional
A549 [13] = assay: Inhibition of glycolysis in human A549 cells assessed as reduction in lactate production at 5 uM incubated for 48 hrs by trypan blue staining based spectrophotometry; assay type: functional
A549 [14] = assay: Inhibition of glycolysis in human A549 cells assessed as reduction in lactate production at 10 uM incubated for 48 hrs by trypan blue staining based spectrophotometry; assay type: functional
A549 [15] = assay: Inhibition of glycolysis in human A549 cells assessed as downregulation of HK2 expression incubated for 48 hrs by Western blotting analysis; assay type: functional, cell-based
A549 [16] = assay: Inhibition of glycolysis in human A549 cells assessed as decrease in HK2 activity incubated for 48 hrs by spectrophotometric assay; assay type: functional, cell-based; conditions: A549, 48 h
A549 [17] = assay: Inhibition of glycolysis in human A549 cells assessed as downregulation of GLUT1 expression at 1 to 10 uM incubated for 48 hrs by Western blotting analysis; assay type: functional, cell-based; conditions: dose 1-10 µM
A549 [18] = assay: Inhibition of glycolysis in human A549 cells assessed as downregulation of HK2 expression in mitochondrial fraction at 1 to 10 uM incubated for 48 hrs by Western blotting analysis; assay type: functional, cell-based; conditions: dose 1-10 µM
A549 [19] = assay: Inhibition of glycolysis in human A549 cells assessed as downregulation of HK2 expression in cytosol fraction at 1 to 10 uM incubated for 48 hrs by Western blotting analysis; assay type: functional, cell-based; conditions: dose 1-10 µM
Mitochondrial membrane = assay: Induction of mitochondrial membrane potential loss in human A549 cells at 1 to 10 uM incubated for 48 hrs by JC-1 dye based fluorescence microscopic analysis; assay type: cell membranes; conditions: dose 1-10 µM
A549 [20] = assay: Induction of apoptosis in human A549 cells assessed as downregulation of AKT expression at 1 to 10 uM incubated for 48 hrs by Western blotting analysis; assay type: functional, cell-based; conditions: dose 1-10 µM
A549 [21] = assay: Induction of apoptosis in human A549 cells assessed as downregulation of AKT phosphorylation at 1 to 10 uM incubated for 48 hrs by Western blotting analysis; assay type: functional, cell-based; conditions: dose 1-10 µM
A549 [22] = assay: Induction of apoptosis in human A549 cells assessed as upregulation of Bax expression at 1 to 10 uM incubated for 48 hrs by Western blotting analysis; assay type: functional, cell-based; conditions: dose 1-10 µM
A549 [23] = assay: Induction of apoptosis in human A549 cells assessed as downregulation of Bcl-2 expression at 1 to 10 uM incubated for 48 hrs by Western blotting analysis; assay type: functional, cell-based; conditions: dose 1-10 µM
A549 [24] = assay: Induction of apoptosis in human A549 cells assessed as increase in ratio of Bax/Bcl-2 at 1 to 10 uM incubated for 48 hrs by Western blotting analysis; assay type: functional, cell-based; conditions: dose 1-10 µM
A549 [25] = assay: Induction of apoptosis in human A549 cells assessed as downregulation of Cyt C expression in mitochondrial fraction at 1 to 10 uM incubated for 48 hrs by Western blotting analysis; assay type: functional, cell-based; conditions: dose 1-10 µM
A549 [26] = assay: Induction of apoptosis in human A549 cells assessed as upregulation of Cyt C expression in cytosol fraction at 1 to 10 uM incubated for 48 hrs by Western blotting analysis; assay type: functional, cell-based; conditions: dose 1-10 µM
A549 [27] = assay: Induction of mitochondria mediated apoptosis in human A549 cells assessed as reduction in HK2 level at […] incubated for 48 hrs by immunofluorescence confocal microscopic analysis; assay type: functional, cell-based

COc1cc(CCc2ccccc2Cl)cc(OC)c1O
Activity (A549 [1]): Active | inhibition (A549 [2]): inactive | Activity (A549 [3]): Dose-dependent-effect | pIC50 (A549 [4]): 5.57 | pIC50 (MDA-MB-231): 4.72 | Activity (BEAS-2B): Toxic | Activity (A549 [5]): 16.9% | Activity (A549 [6]): 30.9% | Activity (A549 [7]): 33.53% | Activity (A549 [8]): 21.6% | Activity (A549 [9]): 24.7% | Activity (A549 [10]): 34.5% | inhibition (A549 [11]): Dose-dependent-effect | Activity (A549 [12]): 4.54 mmol/L | Activity (A549 [13]): 4.38 mmol/L | Activity (A549 [14]): 3.91 mmol/L | inhibition (A549 [15]): Dose-dependent-effect | pIC50 (A549 [16]): ~5.00 | inhibition (A549 [17]): Active | inhibition (A549 [18]): Dose-dependent-effect | inhibition (A549 [19]): inactive | Activity (Mitochondrial membrane): Active | Activity (A549 [20]): inactive | Activity (A549 [21]): Active | Activity (A549 [22]): Active | Activity (A549 [23]): Active | Activity (A549 [24]): Active | Activity (A549 [25]): Active | Activity (A549 [26]): Active

CC(C)=CCC[C@]1(C)C=Cc2c(O)c3c(c(CC=C(C)C)c2O1)O[C@]12C(=C[C@@H]4C[C@H]1C(C)(C)O[C@@]2(C/C=C(/C)C(=O)O)C4=O)C3=O [GAMBOGIC ACID]
Activity (A549 [7]): 30.67% | Activity (A549 [10]): 30.2%

OC[C@H]1OC(O)C[C@@H](O)[C@@H]1O (some centres not stated)
Activity (A549 [27]): Active
